Source: patent US11413278B2, “Compounds and methods for promoting stress resistance” (priority 2015, dated 2022)
Where two headings read alike, the source gives them in different places.

Key:
WI-38 cells = experiment: MMS resistance assay; type: cell-based, human; conditions: for Triple resistant: H2O2, CdCl2 and MMS; for fold induction at 10 µM: Homo sapiens, 12 h, normalized ATP measurement
Method in brief: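 Resistance to CdCl2 or MMS stress (12 h exposure) was scored in WI-38 fibroblasts pretreated with compound at 0.25–20 μM final, five doses, technical triplicates. MMS plates had compound added 24 h before MMS, after a shift to serum-free DMEM+2% BSA. Significance came from a global variance t-test over two independent runs.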

C. elegans = type: in vivo, Caenorhabditis elegans; conditions: in vivo
Method in brief: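 Survival under oxidative stress: 500 μM H2O2 (final) was added to day-4 adults kept in liquid with compounds, FUdR present, 4 wells per molecule and 0.2% DMSO controls, with daily scoring of viability.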

FOXO3 = experiment: qPCR analysis of FOXO3-regulated genes; type: cell-based, human; conditions: for fold induction at 10 µM: Homo sapiens; for K = Sestrin induction: score
Method in brief: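 FOXO3 target-gene expression quantified by qPCR normalised to B2M, PPIA and GAPDH, in WI-38 cells after 24 h exposure to 10 μM compound. Some runs used cells first transfected 36 h with 10 nM FOXO3 or NRF2 siRNA and replated ~24 h before dosing.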

[1] = Exp. 1, WI-38 cells, read-out: Exp. 1, under MMS stress treatment, at 10 uM (fold change)
[2] = Exp. 2, WI-38 cells, read-out: Exp. 2, under MMS stress treatment, at 10 uM (fold change)
[3] = score in summary of 38 core set hits
[4] = 24 h, Assay 10(m), at 10 uM, qPCR, read-out: Induction of FOXO3-regulated genes: GADD45A normalized fold-change
[5] = 10 μM, 24 hrs, WI-38 cells, qPCR, normalized to B2M, n = 4, read-out: GADD45A expression, normalized fold change (FOXO3-regulated gene)
[6] = WI-38 cells, 10 μM, 24 hrs, n=4, qPCR normalized by B2M, read-out: DDB1 Normalized fold change
[7] = WI-38 cells, 10 μM, 24 hrs, n=4, qPCR normalized by B2M, read-out: GADD45A Normalized fold change
[8] = WI-38 cells, 10 μM, 24 hrs, n=4, qPCR normalized by B2M, read-out: SESN1 Normalized fold change
[9] = fold change, qPCR, WI-38 cells, 10 μM, 24 hrs, read-out: Summary of effects on FOXO3-regulated genes: GADD45A
[10] = qPCR, WI-38 cells, 10 μM, n=4, 24 hrs, normalized by B2M, read-out: CAT Normalized fold change
[11] = qPCR, WI-38 cells, 10 μM, n=4, 24 hrs, normalized by B2M, read-out: SOD2 Normalized fold change
[12] = qPCR, WI-38 cells, 10 μM, n=4, 24 hrs, normalized by B2M, read-out: TXNIP Normalized fold change

Structure (SMILES)	fold induction at 10 µM (WI-38 cells; [1])	fold induction at 10 µM (WI-38 cells; [2])	B = MMS resistant (WI-38 cells; [3])	B = MMS resistant (WI-38 cells; summary score)	D = Triple resistant (WI-38 cells; summary score)	L = H2O2-resistance in worms (C. elegans)	N = H2O2-resistance in woms (C. elegans)	E = Potential FOXO3 Activation (FOXO3; 2-point score)	fold induction at 10 µM (FOXO3; [4])	fold induction at 10 µM (FOXO3; [5])	fold induction at 10 µM (FOXO3; [6])	fold induction at 10 µM (FOXO3; [7])	fold induction at 10 µM (FOXO3; [8])	fold induction at 10 µM (FOXO3; [9])	fold induction at 10 µM (FOXO3; [10])	fold induction at 10 µM (FOXO3; [11])	fold induction at 10 µM (FOXO3; [12])	K = Sestrin induction (FOXO3)	E = Potential FOXO3 Activation (FOXO3; summary score)	other results
CC(C)(C)c1ccc(OCC(=O)Nc2ccc3c4c(cccc24)C(=O)NC3=O)cc1 [O22]	3.22	14.8	1	1	2	0	0	0	1.23	1.23	1.04	1.23	1.29	1.23	1.04	1.02	0.742	0	0	MMS-resistant (WI-38 cells): YES; Multiplex resistance to cadmium, MMS and H2O2 (WI-38 cells; 0.25 μM to 20 μM, repurchased molecules): reproducibly conferred multiplex resistance; Triple resistant (WI-38 cells): YES; MMS-resistant (WI-38 cells; WI-38 cells, 10 μM): YES; Triple resistant (WI-38 cells; WI-38 cells, 10 μM): YES; Assay 3: MMS-resistant (WI-38 cells; YES/NO, * indicates partial): YES; Assay 5: Triple resistant (WI-38 cells; YES/NO, H2O2, cadmium and MMS): YES
COc1cccc(/C=C2\CN(C)C/C(=C\c3cccc(OC)c3OC)C2=O)c1OC [O23]	1.04	1.28	0	0	0	0	0	2	7.22	7.22	1.26	7.22	0.799	7.22	0.89	2.04	0.071	0	2	H2O2-resistance assay, 1st experiment (C. elegans): YES;; Induction of at least two of five FOXO3-regulated genes (SOD2, GADD45A, CAT, DDB1, TXNIP) (FOXO3; 10 μM, 24 hrs, WI-38): induce FOXO3-regulated genes; SOD2 expression, normalized fold change (FOXO3-regulated gene) (FOXO3; 10 μM, 24 hrs, WI-38 cells, qPCR, normalized to B2M, n = 4): SOD2 2.04 fold; Potential FOXO3 Activation (>=2 target genes induced, by >=1.5-fold) (FOXO3; Assay 11(n)): YES; fold induction at 10 µM (FOXO3; 24 h, Assay 10(m), at 10 uM, qPCR, read-out: Induction of FOXO3-regulated genes: SOD2 normalized fold-change): 2.04; fold induction at 10 µM (FOXO3; 24 h, Assay 10(m), at 10 uM, qPCR, read-out: Induction of FOXO3-regulated genes: TXNIP normalized fold-change): 0.07; fold induction at 10 µM (FOXO3; 10 μM, 24 hrs, WI-38 cells, qPCR, normalized to B2M, n = 4, read-out: TXNIP expression, normalized fold change (FOXO3-regulated gene)): 0.07; fold induction at 10 µM (FOXO3; fold change, qPCR, WI-38 cells, 10 μM, 24 hrs, read-out: Summary of effects on FOXO3-regulated genes: TXNIP): 0.07; Summary of effects on FOXO3-regulated genes: SOD2 (FOXO3; fold change, qPCR, WI-38 cells, 10 μM, 24 hrs): SOD2 2.04
